Data on two compounds can be found in PMC5129256 (International Journal of Environmental Research and Public …, 2016).

Series [1] relates to LMH cells. To be noted: for Viability of LMH Cells (%) ± SD / IC50 (%): MTT; for IC50 (%): from dose-response curves.
Another series relates to laboratory mice. To be noted: mouse, in vivo; cited from earlier work.
Series [2] concerns human colon adenocarcinoma cell line Caco-2. Details: method as in ref 39 = [39]; 39. Olejnik A. Schmidt M. Wojnarowska K. Grajek W. The influence of toxic digestive metabolites on the proliferation and DNA damage of epithelial intestinal cells in vitro Food Sci. Technol. Qual. 200. The following applies: Caco-2, concentrations as low as 10^-6 M; cited from earlier work.
Another series relates to human skin fibroblasts. The following applies: MTS assay; cited from earlier work. A general note: Formazan colour is commonly taken as a measure of viable cells.
The subject of series [3] is LMH cells. To be noted: PrestoBlue; for Viability of LMH Cells (%) ±S.E.M.: 24 h.
Series [4] deals with human adenocarcinoma cell line HT-29. Details: method as in PMID 14642818. The following applies: HT-29, 20 mM (or 0.04%); cited from earlier work.

Where two headings read alike, the source gives them in different places.

On to `Oc1ccccc1` [Phenol], for which the “cytotoxicity (in words)” value in the series on LMH cells [1] is given as “not cytotoxic”. In the series on LMH cells [1] (chicken), this compound had a cytotoxicity of 85.5%. Also, the “concentration reducing the respiratory rate by 50%” value in the series with laboratory mice is 166 ppm. The “cell proliferation and cell survival” value in series [2] is on record as 56%.

By IC50 is commonly meant the point on the concentration scale where inhibition reaches its midpoint. `N` [Ammonium]: the “Viability of LMH Cells (%) ± SD” value amounted to 97.6 ± 4.3% with LMH cells [1] (0.004%, 24 h); 95.6 ± 2.9% in the series on LMH cells [1] (0.004%, 48 h); 101.9 ± 5.0% with LMH cells [1] (0.004%, 72 h); 98.0 ± 3.0% in the series with LMH cells [1] (0.008%, 24 h); 96.8 ± 1.3% in the series on LMH cells [1] (0.008%, 48 h); 104.8 ± 2.6% in the series with LMH cells [1] (0.008%, 72 h). The “Viability of LMH Cells (%) ± SD” value stood at 93.3 ± 2.8% in the series with LMH cells [1] (0.016%, 24 h); 81.4 ± 5.2 % in the series with LMH cells [1] (0.016%, 48 h); 61.9 ± 2.0 % with LMH cells [1] (0.063%, 24 h); 28.3 ± 1.3 % in the series with LMH cells [1] (0.063%, 48 h); 13.8 ± 1.2 % in the series with LMH cells [1] (0.063%, 72 h); 18.1 ± 0.8 % in the series with LMH cells [1] (0.125%, 24 h). The “Viability of LMH Cells (%) ± SD” value amounted to 7.1 ± 0.8 % in the series on LMH cells [1] (0.125%, 48 h); 10.0 ± 1.3 % in the series on LMH cells [1] (0.125%, 72 h); 5.4 ± 0.1 % in the series on LMH cells [1] (0.25%, 24 h); 1.6 ± 0.2 % in the series with LMH cells [1] (0.25%, 48 h); 2.9 ± 0.1 % in the series with LMH cells [1] (0.25%, 72 h); 5.9 ± 0.2 % in the series with LMH cells [1] (0.5%, 24 h). Besides, the “Viability of LMH Cells (%) ± SD” value with LMH cells [1] (0.5%, 48 h) is 2.1 ± 0.2 %; in the series with LMH cells [1] (0.5%, 72 h), 2.8 ± 0.2 %; in the series with LMH cells [1] (1.0%, 24 h), 13.1 ± 0.1 %; in the series on LMH cells [1] (1.0%, 48 h), 1.7 ± 0.2 %; with LMH cells [1] (1.0%, 72 h), 5.8 ± 0.1 %; with LMH cells [1] ([…], 24 h), 96.4 ± 1.2%. The “Viability of LMH Cells (%) ± SD” value was 65.5 ± 4.0 % in the series on LMH cells [1] ([…], 48 h) and 31.6 ± 2.1 % with LMH cells [1] ([…], 72 h). The “IC50 (%)” value in the series with LMH cells [1] (24 h exposure) is given as 0.08%; in the series with LMH cells [1] (48 h exposure), 0.04%; with LMH cells [1] (72 h exposure) it was 0.02%; in the series on LMH cells [3] (24 h exposure, from dose-response curves), 0.07%. For the same compound, the 50% inhibitory concentration (IC50) with human skin fibroblasts was 9.4 mM. Also, the “Viability of LMH Cells (%) ±S.E.M.” value in the series on LMH cells [3] (0.004%) is given as 99.7 ± 5.8%; in the series with LMH cells [3] (0.008%), 99.0 ± 10.1%; in the series with LMH cells [3] (0.016%), 100.2 ± 8.1%; in the series with LMH cells [3] (0.063%) it was 51.1 ± 7.1 %; in the series on LMH cells [3] (0.125%), 24.6 ± 6.3 %; in the series with LMH cells [3] (0.25%), 5.7 ± 1.1 %. The entries for the “Viability of LMH Cells (%) ±S.E.M.” value in the series on LMH cells [3] (0.5%), in the series with LMH cells [3] (1.0%) and with LMH cells [3] ([…]) were 4.6 ± 0.6 %, 4.7 ± 0.7 % and 99.1 ± 4.9%, respectively. In addition, the effect on proliferation result in series [4] was “almost suppressed proliferation”.
